Assay results: patent publication US9486422B2, “Small molecule inhibitors of Mcl-1 and the uses of thereof” (THE REGENTS OF THE UNIVERSITY OF MICHIGAN, priority 2011, dated 2016)
Like-named read-outs stand apart in the source and are kept apart here.

Legend:
[1] = tested on: activated Bax in BxPC-3 cells; experiment: Bax activation, 6A7 anti-Bax immunostaining, BxPC-3; format: cell-based, human; details: 24 h
Experimental: (§2) Cells mounted on glass slides were permeabilized with PBS containing 0.3% Triton X-100, and blocked with 1% bovine serum albumin in PBS for 30 min at room temperature, followed with overnight incubation with anti-Bak 6A7 (Calbiochem) at 4° C. After thorough washing of the sections in PBS, a secondary antibody labeled with DyLight 488 (Thermo Scientific) was added and incubated for 2 h at room temperature. Nuclei were visualized with DAPI. Samples were analyzed with a FluoView 500 Confocal Laser Scanning Microscope (Olympus).

[2] = Metabolic stability assay, liver microsomes; format: in vitro ADME, mice; details: mouse, pooled mouse liver microsomes; 1 μM compound, 1.2 mg/ml microsomes, 37° C.
Experimental: Metabolic stability of UMI-77 was determined using the pooled mice liver microsomes (XenoTech, LLC). The conditions of the assay and quantification of UMI-77 in different time points are provided.
The β-NADPH (Sigma-Aldrich) was dissolved in 0.1 M phosphate buffer containing 3.3 mM MgCl2 right before use. The pooled mice liver microsomes (XenoTech, LLC) were diluted with 0.1 M phosphate buffer containing 3.3 mM MgCl2, followed by adding the reduced β-NADPH solution. After initiating the enzymes by adding β-NADPH, the mixture was incubated at 37° C. for […] The tested compound UMI-77 was added into the mixture and incubated at 37° C. The final concentrations of the compound, microsomes, β-NADPH, phosphate buffer and MgCl2 were 1 μM, 1.2 mg/ml, 1 mM, 0.1 M, and 3.3 mM, respectively. An aliquot of 40 μl of mixture was collected at 0, 5, 10, 15, 30, 45 and 60 min and the reaction was stopped immediately by adding 120 μl of ice-cold acetonitrile containing an internal standard (100 mg/mL). The incubation solution was centrifuged at 14000 rpm for 5 minutes to precipitate protein. The UMI-77 concentration was determined by LC/MS/MS (Agilent 1200 HPLC system, Agilent Technologies and QTRAP 3200 mass spectrometer, Applied Biosystems/MDS Sciex). UMI-77 was detected under negative ionization mode and the multiple reaction monitoring (MRM) ion transition was m/z 468.1→221.0.

[3] = biological target: T1, Bcl-2 (Homo sapiens, UniProt P10415); experiment: FP-based binding assay, Bcl-2; details: read-out: Bcl-2 Ki ± SD
T1 construct: His-tagged proteins containing; fused on or other part: A 16-residue segment of the flexible loop of Bcl-xL (BCL2L1, Q07817; given as residues 35 to 50) set into the Bcl-2 loop region; His tag with TEV site from the pHis-TEV vector

[4] = tested on: Bcl-2; experiment: FP-based binding assay, Bcl-2
[5] = biological target: T2, Bcl-w (Homo sapiens, UniProt Q92843); experiment: FP-based binding assay, Bcl-w
T2 sequence (Q92843 1-155): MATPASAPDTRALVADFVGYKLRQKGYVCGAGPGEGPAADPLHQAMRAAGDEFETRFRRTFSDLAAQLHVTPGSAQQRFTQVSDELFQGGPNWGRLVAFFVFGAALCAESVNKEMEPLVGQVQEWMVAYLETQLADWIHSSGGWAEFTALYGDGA

[6] = mouse, in vivo, iv, 60 mg/kg
[7] = biological target: T3, A1/Bfl-1 (Homo sapiens, UniProt Q16548); experiment: FP-based binding assay, A1/Bfl-1
T3 sequence (Q16548 1-151): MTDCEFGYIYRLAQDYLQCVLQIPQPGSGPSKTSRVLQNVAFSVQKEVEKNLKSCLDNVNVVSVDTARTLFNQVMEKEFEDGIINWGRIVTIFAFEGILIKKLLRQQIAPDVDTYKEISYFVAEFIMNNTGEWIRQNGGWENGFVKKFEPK

[8] = tested on: wild type (WT) murine embryonic fibroblasts (MEF); experiment: Induction of apoptosis in MEF WT cells; format: cell-based; details: 10 μM, 24 h
[9] = tested on: activated Bax in Panc-1 cells; experiment: Bax activation, 6A7 anti-Bax immunostaining, Panc-1; format: cell-based, human; details: 24 h
Experimental: as §2

[10] = tested on: Panc-1 cells; experiment: Induction of apoptosis, Annexin V/PI, Panc-1; format: cell-based, human
Experimental: An Annexin-V-FLUOS/Propidium iodide staining kit and ELISA detection kit (Roche Applied Science) were used to detect apoptosis in PC cells. Cells were treated with Mcl-1 inhibitors for different time points, harvested, washed with PBS and apoptosis was quantified according to manufacturer's protocol.

[11] = tested on: BxPC-3; experiment: Cell growth inhibition (WST-8), BxPC-3; format: cell-based; details: Homo sapiens, BXPC-3, 96 h; 4 days treatment
Experimental: (§1) Human PC cell lines AsPC-1, BxPC-3 and Capan-2 were cultured in RPMI 1640 medium, while Panc-1 and MiaPaCa were cultured in DMEM medium (Life Technologies), all supplemented with 10% fetal bovine serum (Thermo Scientific HyClone). The rate of cell growth inhibition after treatment with increasing concentrations of the tested compounds was determined by WST-8 assay as described in the manufacturers protocol (Dojindo Molecular Technologies Inc.).

[12] = tested on: Bax/Bak-deficient (DKO) MEFs; experiment: Induction of apoptosis in MEF DKO cells; format: cell-based, murine; details: 10 μM, 24 h
[13] = tested on: Panc-1; experiment: Cell growth inhibition (WST-8), Panc-1; format: cell-based; details: Homo sapiens, PANC-1, 96 h; 4 days treatment
Experimental: as §1

[14] = tested on: BxPC-3 xenograft; experiment: BxPC-3 xenograft efficacy in SCID mice; format: in vivo; details: 60 mg/kg i.v., 5 days a week for two weeks
Experimental: For BxPC-3 subcutaneous model, 10×10^6 cells were subcutaneously injected into the flanks of 4-5 week old female severe combined immune deficient mice (ICR-SCID) (Taconic Farms) using 26 G ½ Precision Glide needles (Becton Dickinson). […] Tumors were measured twice weekly using a caliper and expressed in mg. To prevent any pain or discomfort, mice were euthanized and their tumors removed once they reached ˜1800 mg burden. […] Tumor weight was recorded throughout the treatment period using previously described methods.

[15] = tested on: bone marrow derived cells from patients with multiple myeloma; experiment: Cellular viability (trypan blue), multiple myeloma patient cells; format: cell-based; details: Homo sapiens, 0-10 μM, 0-72 hrs
Text: Blood or bone marrow samples from multiple myeloma patients was obtained from treated or untreated patients after informed consent. Plasma cells were obtained after gradient density centrifugation using Ficoll Hypaque. Some samples were purified for C138^+ population using flow cytometry. In all cases, purity of the plasma cells was higher than 90%, as assessed by morphology.
Isolated MM cells were maintained in RPMI 1640 medium supplemented with 10% fetal bovine serum (Hyclone Laboratories, Logan, Utah) and 1% Penicillin-Streptomycin (Invitrogen, Carlsbad, Calif.), at 37° C. in a humidified incubator with 5% CO2. […] The number of viable cells was determined by trypan blue exclusion test with trypan blue (0.4%) purchased from Sigma Chemical Co. (St. Louis, Mo.). All experiments are performed in triplicate and statistical analysis was done using the t test (two tailed) with 95% confidence intervals between treated and untreated samples. P<0.05 was used to indicate statistical significance.

[16] = biological target: Mcl-1 (Homo sapiens, UniProt Q07820); experiment: FP-based binding assay, Mcl-1
[17] = biological target: T4, cellular Mcl-1 protein (2LMP cell lysate) (Homo sapiens, UniProt Q07820); experiment: Biotin-streptavidin pull-down with biotin-labeled Noxa BH3 peptide; format: binding
T4 construct: endogenous in cells; host or cells: 2LMP (subclone of MDA-MB-231) cell lysate
Experimental: Human breast cancer 2LMP cells, a subclone of the MDA-MB-231 cell line, were lysed in CHAPS buffer (10 mM HEPES (pH 7.4), 2.5 mM EDTA, 150 mM NaCl, 1.0% CHAP). Pre-cleared cell lysates were incubated with different concentrations of tested compounds, followed by incubation with biotinylated Noxa BH3 peptide (residues 18-43) and streptavidin-agarose beads to pull-down Mcl-1 protein bound to Noxa peptide. Beads were washed with CHAPS buffer, and Mcl-1 protein was eluted by boiling in SDS-PAGE sample buffer and analyzed by Western blotting using Mcl-1 antibody (Santa Cruz). DMSO alone was used as a control for nonspecific pull-down.

Sequence of Mcl-1 (Q07820 171-327): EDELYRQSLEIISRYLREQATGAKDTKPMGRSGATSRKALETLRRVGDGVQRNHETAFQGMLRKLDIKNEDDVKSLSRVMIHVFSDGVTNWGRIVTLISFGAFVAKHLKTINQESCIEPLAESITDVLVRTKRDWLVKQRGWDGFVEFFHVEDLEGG
T4 sequence (Q07820 whole entry): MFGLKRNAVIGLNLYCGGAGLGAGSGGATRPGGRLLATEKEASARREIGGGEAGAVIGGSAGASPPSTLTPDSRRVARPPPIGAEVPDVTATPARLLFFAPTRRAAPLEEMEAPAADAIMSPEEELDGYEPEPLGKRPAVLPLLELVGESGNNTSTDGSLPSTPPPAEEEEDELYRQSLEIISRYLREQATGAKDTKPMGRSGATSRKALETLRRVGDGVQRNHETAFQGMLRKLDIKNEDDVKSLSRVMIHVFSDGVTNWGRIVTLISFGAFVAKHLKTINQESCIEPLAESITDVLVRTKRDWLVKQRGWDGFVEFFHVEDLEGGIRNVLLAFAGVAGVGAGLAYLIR
T1 sequence (P10415 with tags, fused parts or gaps with the stated changes): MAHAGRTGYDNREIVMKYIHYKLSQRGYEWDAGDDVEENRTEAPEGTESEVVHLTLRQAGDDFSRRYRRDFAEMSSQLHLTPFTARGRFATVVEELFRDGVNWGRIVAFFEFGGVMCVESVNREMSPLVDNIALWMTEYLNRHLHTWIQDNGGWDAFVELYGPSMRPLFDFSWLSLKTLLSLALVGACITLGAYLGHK

## O=C(O)CSc1cc(NS(=O)(=O)c2ccc(Br)cc2)c2ccccc2c1O [Compound 9, 2-((4-(4-Bromophenylsulfonamido)-1-hydroxynaphthalen-2-yl)thio)acetic acid]
[1]
  concentration from which activated Bax increases: ≥ 5 µM
[2]
  half-life at 1 μM: 45 min
[3]
  Ki: 23.8 ± 1.81 µM
[4]
  fold lower affinity to Bcl-2 than to Mcl-1 (selectivity): more than 50 fold
[5]
  fold lower affinity to Bcl-w than to Mcl-1 (selectivity): 17 fold
[5]; competitive FP, FAM-BID 2 nM, protein 40 nM, read-out: Bcl-w Ki ± SD
  Ki: 8.19 ± 1.9 µM
[6]
  histopathology (H&E) of normal tissues: did not cause damage to tested tissues from kidney, liver and pancreas
[7]
  fold lower affinity to A1/Bfl-1 than to Mcl-1 (selectivity): 11 fold
[7]; read-out: A1/Bfl-1 Ki ± SD
  Ki: 5.33 ± 1 µM
[8]
  apoptosis in MEF WT cells: more than 60%
[9]
  concentration from which activated Bax increases: ≥ 5 µM
[10]; 5 μM, 24 hours
  early apoptotic cells: 15%
[10]; 5 μM, 48 hours
  early apoptotic cells: 21%
[10]; 10 μM, 24 hours
  early apoptotic cells: 21%
[10]; 10 μM, 48 hours
  early apoptotic cells: 49%
[11]
  IC50: 3.4 ± 0.4 µM
[12]
  apoptotic cells in MEF DKO cells: 16%
[13]
  IC50: 4.4 ± 1.3 µM
[14]; day 19 (p<0.0001)
  tumor growth inhibition: 65%
[14]; day 22 (p<0.003)
  tumor growth inhibition: 56%
[15]
  IC50: 2.5 to 5 µM
[16]
  fold improved binding to Mcl-1 compared to 2: 7 fold
[16]; FP and SPR based binding studies, read-out: Ki to Mcl-1
  Ki: 0.49 µM
[16]; competitive FP, Flu-BID 2 nM, Mcl-1 90 nM, read-out: Mcl-1 IC50 ± SD
  IC50: 1.87 ± 0.22 µM
[16]; competitive FP, Ki calculated from IC50, read-out: Mcl-1 Ki ± SD
  Ki: 0.49 ± 0.06 µM
[17]
  concentration from which BL-Noxa/cellular Mcl-1 interaction is blocked: ≥ 10 µM
  disruption of BL-Noxa/cellular Mcl-1 interaction, result in words: effectively disrupted
